Reference: patent US20250177359A1, “COMPOUNDS FOR USE IN THE TREATMENT OF CANCER AND INFLAMMATORY CONDITIONS” (priority 2022, published 2025)
Read-outs that look alike come from different tables or passages of the source.

Columns and labels:
[1] = Toxicity using the WST-1 assay
PARP2 = target: T1, PARP2 (Homo sapiens, UniProt Q9UGN5); assay: biochemical; format: biochemical; conditions: NAD+ consumption assay; > less than 50% inhibition at highest concentration, >> no inhibition
T1 construct: made in house
Procedure: (§1) All starting materials, reagents, and solvents were purchased from common commercial suppliers and were used as such without further purification. […] Organic solutions were dried over anhydrous Na2SO4 and concentrated with rotary evaporator at low pressure. All the reactions were routinely checked by thin-layer chromatography (TLC) on silica gel 60F254 (Merck) and visualized by using UV and iodine. Flash chromatography separations were carried out on Merck silica gel 60 (mesh 230-400) or by using automated Buchi Reveleris X2-UV with column FP Ecoflex Si 12 g. Yields were of purified products and were not optimized. ^1HNMR spectra were recorded at 400 MHz (Bruker Avance DRX-400), while ^13CNMR spectra were recorded at 101 MHz (Bruker Avance DRX-400). Chemical shifts are given in ppm (δ) relative to TMS. […] Mating constant (J) are reported in Hz. The purity of the tested compounds was evaluated by HPLC analysis using Jasco LC-4000 instrument equipped with a UV-Visible Diode Array Jasco-MD4015 (Jasco Corporation, Tokyo, Japan), and XTerra MS C18 column, 5 μm×4.6 mm×150 mm (Waters Corporation, Massachusetts, USA). Chromatograms were analyzed by ChromNAV2.0 Chromatography Data System software. […] The peak retention time (ret. time) is given in minutes. […] 1-Isobutoxy-4-methoxy-2-nitrobenzene (113). Isobutyl alcohol (0.6 mL, 6.43 mmol) was added, under nitrogen atmosphere at 0° C., to a suspension of NaH (0.26 g, 6.43 mmol) in dry DMF. After 15 minutes, 1-fluoro-4-methoxy-2-nitrobenzene 112 (1 g, 5.84 mmol) was also added and the reaction mixture was stirred at 80° C. for 4 h. […] (2-Isobutoxy-5-methoxyphenyl)amine (114). Zn (1.57 g, 24 mmol) and NH4C1 (2.45 g, 40 mmol) were added to a solution of 113 (0.46 g, 2 mmol) in acetone/H2O (50 mL, ratio 5:1). The reaction mixture was stirred at 60° C. for 3 h and, then, it was filtered over celite. […] N-(2,5-diethoxyphenyl)thiourea (55). […] N-(2-isobutoxy-5-methoxyphenyl)thiourea (115). […] A solution of Br2 (0.2 mL, 3.3 mmol) in CHCl3 (5 mL) was slowly added to a suspension of 45 (0.6 g, 3.3 mmol) in CHCl3 (13 mL), at 0° C. The reaction mixture was stirred at r.t. for 4 h and, then, a 10% solution of Na2SO3 in water was added to the mixture. […] 4,7-Diethoxy-1,3-benzothiazol-2-amine (66). […] 4-Isobutoxy-7-methoxy-1,3-benzothiazol-2-amine (116). […] Hydrazine hydrate (0.23 mL, 4.77 mmol) and CH3COOH (0.12 mL, 2.1 mmol) were added to a suspension of 56 (0.29 g, 1.59 mmol) in ethylene glycol (8 mL), and the reaction mixture was stirred for 24 h at 125° C. […] 6-Ethyl-2-hydrazino-1,3-benzothiazole (69). […] 6-Ispropyl-2-hydrazino-1,3-benzothiazole (70). […] 2-Hydrazino-4,7-dimethoxy-1,3-benzothiazole (73). […] 2-Hydrazino-5,7-dimethoxy-1,3-benzothiazole (75). […] 2-Hydrazino-4,7-Diethoxy-1,3-benzothiazole (77). […] 2-Hydrazino-5-methyl[1,3]thiazolo[5,4-b]pyridine (100). […] A solution of 67 (0.13 g, 0.65 mmol) in formic acid (5 mL) was refluxed for 10 h. The reaction mixture was then poured into ice/water and the pH was neutralized using a saturated solution of NaHCO3.

TNKS2 = target: T2, TNKS2 (Homo sapiens, UniProt Q9H2K2); assay: biochemical; conditions: read-out: TNKS2 IC50; NAD+ consumption assay; > less than 50% inhibition at highest concentration, >> no inhibition
T2 sequence (Q9H2K2 1-1166): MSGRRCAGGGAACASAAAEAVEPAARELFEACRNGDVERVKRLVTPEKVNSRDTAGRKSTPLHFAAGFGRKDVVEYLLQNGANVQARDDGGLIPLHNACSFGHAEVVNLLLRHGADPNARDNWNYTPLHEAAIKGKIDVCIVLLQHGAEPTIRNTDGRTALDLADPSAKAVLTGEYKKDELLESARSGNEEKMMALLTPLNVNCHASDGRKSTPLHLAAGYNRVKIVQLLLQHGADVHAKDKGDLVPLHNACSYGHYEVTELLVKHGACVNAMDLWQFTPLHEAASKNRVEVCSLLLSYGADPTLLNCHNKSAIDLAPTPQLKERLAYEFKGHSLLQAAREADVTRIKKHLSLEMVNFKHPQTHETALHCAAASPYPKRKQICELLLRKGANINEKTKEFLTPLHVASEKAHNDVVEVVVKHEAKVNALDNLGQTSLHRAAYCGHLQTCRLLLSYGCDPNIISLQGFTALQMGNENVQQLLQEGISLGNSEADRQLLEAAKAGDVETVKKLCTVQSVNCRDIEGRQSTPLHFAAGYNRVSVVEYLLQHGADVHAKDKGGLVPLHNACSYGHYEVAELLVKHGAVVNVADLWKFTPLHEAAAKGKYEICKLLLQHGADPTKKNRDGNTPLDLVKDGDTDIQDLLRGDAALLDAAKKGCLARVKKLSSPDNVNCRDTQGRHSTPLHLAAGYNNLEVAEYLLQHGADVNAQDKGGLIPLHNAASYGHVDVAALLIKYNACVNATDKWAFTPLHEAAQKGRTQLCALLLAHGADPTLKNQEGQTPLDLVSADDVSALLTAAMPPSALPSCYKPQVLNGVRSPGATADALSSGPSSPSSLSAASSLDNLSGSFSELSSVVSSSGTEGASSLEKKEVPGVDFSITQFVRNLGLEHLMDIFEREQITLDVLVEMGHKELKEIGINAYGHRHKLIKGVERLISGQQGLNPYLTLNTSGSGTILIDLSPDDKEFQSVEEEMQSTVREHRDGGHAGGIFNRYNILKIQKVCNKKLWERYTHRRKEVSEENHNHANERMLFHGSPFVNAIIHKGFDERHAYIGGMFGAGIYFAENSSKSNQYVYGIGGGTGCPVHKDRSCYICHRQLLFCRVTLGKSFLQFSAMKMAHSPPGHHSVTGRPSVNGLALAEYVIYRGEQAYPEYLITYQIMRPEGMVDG
Procedure: as §1

PARP10 = target: T3, PARP10 (Homo sapiens, UniProt Q53GL7); assay: Activity assay measuring NAD+ consumption, PARP10 (Tables 1-3); format: biochemical
T3 construct: made in house
T3 sequence (Q53GL7 1-1025): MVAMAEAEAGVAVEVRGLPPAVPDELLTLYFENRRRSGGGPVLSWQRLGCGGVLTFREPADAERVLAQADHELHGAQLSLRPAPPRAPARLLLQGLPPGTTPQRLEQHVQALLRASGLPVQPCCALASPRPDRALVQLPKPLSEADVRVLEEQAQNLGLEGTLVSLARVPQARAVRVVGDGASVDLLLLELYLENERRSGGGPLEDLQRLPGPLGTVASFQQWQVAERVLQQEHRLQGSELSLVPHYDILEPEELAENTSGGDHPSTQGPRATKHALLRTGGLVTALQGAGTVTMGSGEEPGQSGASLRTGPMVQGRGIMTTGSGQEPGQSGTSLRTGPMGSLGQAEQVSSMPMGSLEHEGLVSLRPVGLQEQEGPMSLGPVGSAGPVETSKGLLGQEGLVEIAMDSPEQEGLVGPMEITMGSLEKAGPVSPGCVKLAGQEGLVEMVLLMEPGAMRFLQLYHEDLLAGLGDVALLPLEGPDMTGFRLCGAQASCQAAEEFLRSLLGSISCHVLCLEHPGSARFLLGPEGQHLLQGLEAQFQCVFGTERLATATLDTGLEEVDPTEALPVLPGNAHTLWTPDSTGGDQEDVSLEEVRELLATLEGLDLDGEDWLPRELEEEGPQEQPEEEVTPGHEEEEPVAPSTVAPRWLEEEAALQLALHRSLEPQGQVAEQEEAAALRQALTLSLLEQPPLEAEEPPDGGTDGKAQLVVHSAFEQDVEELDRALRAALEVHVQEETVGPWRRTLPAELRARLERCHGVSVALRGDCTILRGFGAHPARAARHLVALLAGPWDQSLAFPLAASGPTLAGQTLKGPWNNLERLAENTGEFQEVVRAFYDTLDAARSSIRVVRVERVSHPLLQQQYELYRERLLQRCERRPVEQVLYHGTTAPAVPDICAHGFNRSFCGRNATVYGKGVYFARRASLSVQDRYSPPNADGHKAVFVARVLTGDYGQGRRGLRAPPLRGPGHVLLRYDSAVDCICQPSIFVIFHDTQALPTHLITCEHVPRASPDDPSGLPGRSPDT

PARP15 = target: T4, PARP15 (Homo sapiens, UniProt Q460N3); assay: biochemical
T4 sequence (Q460N3 1-678): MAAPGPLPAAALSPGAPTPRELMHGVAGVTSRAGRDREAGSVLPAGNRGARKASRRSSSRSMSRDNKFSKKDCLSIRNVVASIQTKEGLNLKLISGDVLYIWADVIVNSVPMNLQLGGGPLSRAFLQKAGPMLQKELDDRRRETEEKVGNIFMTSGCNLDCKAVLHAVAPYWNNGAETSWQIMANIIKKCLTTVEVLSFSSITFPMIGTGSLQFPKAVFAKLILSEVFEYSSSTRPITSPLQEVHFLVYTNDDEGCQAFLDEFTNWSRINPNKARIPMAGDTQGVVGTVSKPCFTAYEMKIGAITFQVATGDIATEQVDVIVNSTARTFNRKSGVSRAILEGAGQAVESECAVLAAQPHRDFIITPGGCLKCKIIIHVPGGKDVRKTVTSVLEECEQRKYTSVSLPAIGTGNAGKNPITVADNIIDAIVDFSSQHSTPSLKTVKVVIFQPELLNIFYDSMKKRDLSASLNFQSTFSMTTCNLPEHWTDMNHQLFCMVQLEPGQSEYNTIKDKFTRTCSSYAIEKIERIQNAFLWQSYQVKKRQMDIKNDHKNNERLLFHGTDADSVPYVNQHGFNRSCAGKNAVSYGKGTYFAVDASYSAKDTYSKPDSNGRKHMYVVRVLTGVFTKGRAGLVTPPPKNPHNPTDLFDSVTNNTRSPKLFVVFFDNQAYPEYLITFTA
Procedure: as §1

[2] = Tables 1-3 assay, > less than 50% inhibition, >> no inhibition at reported concentration, * value limited by protein concentration, read-out: PARP10 IC50
[3] = read-out: PARP15 IC50, Tables 1-3 assay, > less than 50% inhibition, >> no inhibition at reported concentration, * value limited by protein concentration
[4] = PARP10 IC50, Tables 1-3 assay, > less than 50% inhibition, >> no inhibition at reported concentration, * value limited by protein concentration
[5] = PARP10 pIC50 ± SEM, Tables 1-3 assay

T1 sequence (Q9UGN5 whole entry): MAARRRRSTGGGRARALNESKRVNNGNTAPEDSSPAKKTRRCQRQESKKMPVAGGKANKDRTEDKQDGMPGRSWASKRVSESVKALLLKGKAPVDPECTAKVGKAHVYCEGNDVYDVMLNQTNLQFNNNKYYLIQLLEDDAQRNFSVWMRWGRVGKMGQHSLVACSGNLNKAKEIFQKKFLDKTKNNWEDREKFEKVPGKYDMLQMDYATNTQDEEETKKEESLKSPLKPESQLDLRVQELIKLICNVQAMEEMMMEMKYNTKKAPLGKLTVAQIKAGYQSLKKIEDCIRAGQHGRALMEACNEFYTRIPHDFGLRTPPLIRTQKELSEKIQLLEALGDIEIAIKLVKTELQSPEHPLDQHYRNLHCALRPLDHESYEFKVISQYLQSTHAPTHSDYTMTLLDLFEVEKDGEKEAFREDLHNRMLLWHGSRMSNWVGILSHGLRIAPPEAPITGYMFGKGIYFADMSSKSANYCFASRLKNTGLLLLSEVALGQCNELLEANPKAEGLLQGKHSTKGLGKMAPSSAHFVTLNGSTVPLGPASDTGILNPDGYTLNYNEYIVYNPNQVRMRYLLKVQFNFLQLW

Oc1ccc(O)c2c1sc1nncn12 [Compound 17, [1,2,4]Triazolo[3,4-b][1,3]benzothiazol-5,8-diol]
toxicity (WST-1 assay) [1]: dose dependent toxicity | IC50 (PARP2): 240 nM | IC50 (TNKS2): 3.1 µM

COc1ccc(OC)c2c1SC1=NNC(SC)N12 (stereo not drawn) [Compound 27, 5,8-Dimethoxy-3-(methylthio)-2,3-dihydro[1,2,4]triazolo[3,4-b][1,3]benzothiazole]
IC50 (PARP10; [2]): > 10000 nM | IC50 (PARP15; [3]): > 10000 nM

COc1ccc(OC)c2c1SC1=NNC(NC(=O)c3ccc(Cl)cc3)N12 (stereo not drawn) [Compound 29, 4-Chloro-N-(5,8-dimethoxy-2,3-dihydro[1,2,4]triazolo[3,4-b][1,3]benzothiazol-3-yl)benzamide]
IC50 (PARP10; [2]): > 10000 nM | IC50 (PARP15; [3]): 7900 nM

c1cnc2sc3nncn3c2c1 [Compound 101, [1,2,4]Triazolo[3′,4′:2,3][1,3]thiazolo[5,4-b]pyridine]
inhibition of PARP10 (in words) (PARP10): only weak inhibition | IC50 (PARP10; [4]): 30000 nM

CCOc1ccc(OCC)c2c1sc1nncn12 [Compound 102, 5,8-Diethoxy[1,2,4]triazolo[3,4-b][1,3]benzothiazole]
inhibition of PARP10 (in words) (PARP10): potent PARP10 inhibitors | IC50 (PARP10; PARP10 IC50, Tables 1-3 assay): 610 nM

CCOc1ccc(OCC)c2c1sc1nnc(N)n12 [Compound 103, 5,8-Diethoxy[1,2,4]triazolo[3,4-b][1,3]benzothiazol-3-amine]
inhibition of PARP10 (in words) (PARP10): potent PARP10 inhibitors | IC50 (PARP10; PARP10 IC50, Tables 1-3 assay): 72 nM

COc1cc2sc3nnc(N)n3c2cc1OC [Compound 104, 6,7-Dimethoxy[1,2,4]triazolo[3,4-b][1,3]benzothiazol-3-amine]
IC50 (PARP10; PARP10 IC50, Tables 1-3 assay): 110 nM | IC50 (PARP10; [5]): 107 nM | IC50 (PARP15; PARP15 IC50, Tables 1-3 assay): 170 nM

CC(=O)Nc1nnc2sc3cc(C)ccc3n12 [Compound 107, N-(7-methyl[1,2,4]triazolo[3,4-b][1,3]benzothiazol-3-yl)acetamide]
IC50 (PARP10; [4]): 2600 nM | IC50 (PARP15; PARP15 IC50, Tables 1-3 assay, > less than 50% inhibition, >> no inhibition at reported concentration, * value limited by protein concentration): 5200 nM

Nc1nnc2sc3cc(Br)ccc3n12 [Compound 108, 7-Bromo[1,2,4]triazolo[3,4-b][1,3]benzothiazol-3-amine]
IC50 (PARP10; PARP10 IC50, Tables 1-3 assay): 60 nM | IC50 (PARP15; PARP15 IC50, Tables 1-3 assay): 150 nM | IC50 (PARP15; PARP15 pIC50 ± SEM, Tables 1-3 assay): 145 nM

COc1ccc(OCC(C)C)c2c1sc1nnc(N)n12 [Compound 110, 5-Isobutoxy-8-methoxy[1,2,4]triazolo[3,4-b][1,3]benzothiazol-3-amine]
IC50 (PARP10; PARP10 IC50, Tables 1-3 assay): 80 nM | IC50 (PARP10; [5]): 81.3 nM | IC50 (PARP15): 180 nM
